The target in this experiment is T1, Recombinant purified human JAK3 (Homo sapiens, UniProt P52333).
T1 construct: purchased Promega V9441
T1 sequence (P52333 1-1124): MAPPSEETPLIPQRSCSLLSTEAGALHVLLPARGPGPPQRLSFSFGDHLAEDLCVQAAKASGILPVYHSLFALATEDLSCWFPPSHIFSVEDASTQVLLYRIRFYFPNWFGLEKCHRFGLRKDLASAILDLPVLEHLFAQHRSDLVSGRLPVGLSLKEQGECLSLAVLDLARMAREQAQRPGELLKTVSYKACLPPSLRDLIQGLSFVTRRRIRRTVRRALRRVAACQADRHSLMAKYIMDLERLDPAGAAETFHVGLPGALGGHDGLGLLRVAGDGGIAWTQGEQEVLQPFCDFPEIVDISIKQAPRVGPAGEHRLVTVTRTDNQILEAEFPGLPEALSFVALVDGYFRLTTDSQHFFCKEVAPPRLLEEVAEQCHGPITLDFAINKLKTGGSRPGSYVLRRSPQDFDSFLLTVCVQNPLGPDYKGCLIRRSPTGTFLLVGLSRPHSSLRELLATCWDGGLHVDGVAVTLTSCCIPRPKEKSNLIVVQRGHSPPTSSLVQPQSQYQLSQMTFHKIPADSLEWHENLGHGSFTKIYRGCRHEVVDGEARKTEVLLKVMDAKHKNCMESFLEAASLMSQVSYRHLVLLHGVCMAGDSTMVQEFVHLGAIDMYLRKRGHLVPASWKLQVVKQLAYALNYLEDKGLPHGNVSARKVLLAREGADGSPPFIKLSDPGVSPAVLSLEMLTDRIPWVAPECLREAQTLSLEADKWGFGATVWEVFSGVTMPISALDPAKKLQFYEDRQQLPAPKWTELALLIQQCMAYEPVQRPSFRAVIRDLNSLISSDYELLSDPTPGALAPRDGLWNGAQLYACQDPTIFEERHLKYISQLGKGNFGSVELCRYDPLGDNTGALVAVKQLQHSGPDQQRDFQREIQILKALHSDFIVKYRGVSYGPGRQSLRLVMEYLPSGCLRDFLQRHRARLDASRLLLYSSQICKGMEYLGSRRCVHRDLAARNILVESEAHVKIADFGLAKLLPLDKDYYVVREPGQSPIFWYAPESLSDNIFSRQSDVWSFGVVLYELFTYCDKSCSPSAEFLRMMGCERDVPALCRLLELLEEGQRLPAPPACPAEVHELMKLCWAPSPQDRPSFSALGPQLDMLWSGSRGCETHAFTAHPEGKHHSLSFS
Put plainly: JAK3 inhibitory activity test (ADP-Glo kinase assay). Particulars: ATP 5 uM, 1 hour incubation at 30° C. The experiment is classed as biochemical. As for the experimental part: The inhibitory activities against JAK3 were measured for the compounds prepared in the above Examples through in vitro analysis on the ADP Glow (Glo) platform.
Specifically, the inhibitory activities against JAK3 were measured using a JAK3 kinase assay kit (Promega, V9441), which was purchased from Promega. Recombinant purified human JAK3 was diluted with 1× kinase reaction buffer (JAK3: 40 mM Tris-CI, pH 7.5, 20 mM MgCl2, 0.1 mg/mL BSA and 50 uM OTT and added to a 96 well plate (JAK3: final concentration of 4 ng per reaction). The compounds prepared in the previous Examples were treated so as to be finally a 1% DMSO aqueous solution, and a substrate cocktail containing ATP (JAK3: final concentration of 5 uM) and 0.2 ug/ul of Poly(Glu4, Tyri) peptide (JAK3 final concentration) in the total 25 uL reactants was added to a 96-well plate to initiate enzymatic reaction. After incubation (30° C.) for 1 hour, equivalent volume (25 uL per reaction) of ADP Glo was added and incubated (30° C.) for 40 minutes at room temperature. Then, a kinase detection reagent (50 uL per reaction) was added and incubated (30° C.) for 30 minutes at room temperature. The kinase activity was measured by chemiluminescence according to the instructions of ADP Glo kinase assay kit, and the inhibitory activity of the compounds according to the present invention was calculated. For the analysis of the results of each compound, Microsoft Excel was used, and IC50 values were calculated by SigmaPlot software.
In general, IC50 refers to the concentration needed to halve the response being measured. As for `C=CC(=O)Nc1ccc(F)c(Oc2cccc3nc(Nc4ccc(N5CCN(C)CC5)cc4)nn23)c1` [Example 29, N-(4-fluoro-3-(2-(4-(4-methylpiperazin-1-yl)phenylamino)-[1,2,4]triazolo[1,5-a]pyridin-5-yloxy)phenyl)acrylamide], the IC50 turned out to be 0.7 nM.
To `C=CC(=O)Nc1cccc(Oc2cccc3nc(Nc4cnc5onc(C)c5c4)nn23)c1` [Example 25, N-(3-(2-(3-methylisoxazolo[5,4-b]pyridin-5-ylamino)-[1,2,4]triazolo[1,5-a]pyridin-5-yloxy)phenyl)acrylamide] belongs 105 nM.
As to `C=CC(=O)Nc1ccc(F)c(Oc2cccc3nc(Nc4ccc(N5CCOCC5)cc4)nn23)c1` [Example 27, N-(4-fluoro-3-(2-(4-morpholinophenylamino)-[1,2,4]triazolo[1,5-a]pyridin-5-yloxy)phenyl)acrylamide], the half-inhibitory concentration (IC50) was 1.3 nM.
For `C=CC(=O)Nc1cccc(Oc2cccc3nc(Nc4ccc(-n5nc(C)cc5C)cc4)nn23)c1` [Example 10, N-(3-(2-(4-(3,5-dimethyl-1H-pyrazol-1-yl)phenylamino)-[1,2,4]triazolo[1,5-a]pyridin-5-yloxy)phenyl)acrylamide], the IC50 stood at 3.6 nM.
To `C=CC(=O)Nc1cccc(Oc2cccc3nc(Nc4ccc(N5CCOCC5)cc4)nn23)c1` [Example 4, N-(3-(2-(4-morpholinophenylamino)-[1,2,4]triazolo[1,5-a]pyridin-5-yloxy)phenyl)acrylamide] belongs 0.6 nM; to `C=CC(=O)Nc1cccc(Oc2cccc3nc(Nc4ccc5ncsc5c4)nn23)c1` [Example 3, N-(3-(2-(benzo[d]thiazol-6-ylamino)-[1,2,4]triazolo[1,5-a]pyridin-5-yloxy)phenyl)acrylamide], 2.4 nM.
Next, `C=CC(=O)Nc1cccc(Oc2cccc3nc(Nc4ccc(N(C)C)cc4)nn23)c1` [Example 6, N-(3-(2-(4-(dimethylamino)phenylamino)-[1,2,4]triazolo[1,5-a]pyridin-5-yloxy)phenyl)acrylamide]: 2.1 nM; `C=CC(=O)Nc1ccc(F)c(Oc2cccc3nc(Nc4cnn(C(F)F)c4)nn23)c1` [Example 31, N-(3-(2-(1-(difluoromethyl)-1H-pyrazol-4-ylamino)-[1,2,4]triazolo[1,5-a]pyridin-5-yloxy)-4-fluorophenyl)acrylamide]: 18.2 nM.
Next, `C=CC(=O)Nc1ccc(F)c(Oc2cccc3nc(Nc4ccc5ncsc5c4)nn23)c1` [Example 28, N-(3-(2-(benzo[d]thiazol-6-ylamino)-[1,2,4]triazolo[1,5-a]pyridin-5-yloxy)-4-fluorophenyl)acrylamide]: 1.2 nM.
In the case of `C=CC(=O)Nc1cccc(Oc2cccc3nc(Nc4ccc(N5CCN(C)CC5)cc4)nn23)c1` [Example 1, N-(3-(2-(4-(4-methylpiperazin-1-yl)phenylamino)-[1,2,4]triazolo[1,5-a]pyridin-5-yloxy)phenyl)acrylamide], the concentration for half-maximal inhibition (IC50) worked out at 0.47 nM.
Take `C=CC(=O)Nc1cccc(Oc2cccc3nc(Nc4cccc(-n5nc(C)cc5C)c4)nn23)c1` [Example 9, N-(3-(2-(3-(3,5-dimethyl-1H-pyrazol-1-yl)phenylamino)-[1,2,4]triazolo[1,5-a]pyridin-5-yloxy)phenyl)acrylamide]: the concentration for half-maximal inhibition (IC50) is 10.4 nM.
To `C=CC(=O)Nc1cccc(Oc2cccc3nc(Nc4cnn(C(F)F)c4)nn23)c1` [Example 8, N-(3-(2-(1-(difluoromethyl)-1H-pyrazol-4-ylamino)-[1,2,4]triazolo[1,5-a]pyridin-5-yloxy)phenyl)acrylamide] belongs 1.3 nM; to `CC#CC(=O)Nc1cccc(Oc2cccc3nc(Nc4ccc(N5CCN(C)CC5)cc4)nn23)c1` [Example 20, N-(3-(2-(4-(4-methylpiperazin-1-yl)phenylamino)-[1,2,4]triazolo[1,5-a]pyridin-5-yloxy)phenyl)but-2-ynamide], 0.6 nM.
`C=CC(=O)Nc1cccc(Oc2cccc3nc(Nc4cccc(Oc5ccccc5)c4)nn23)c1` [Example 5, N-(3-(2-(3-phenoxyphenylamino)-[1,2,4]triazolo[1,5-a]pyridin-5-yloxy)phenyl)acrylamide]: the half-maximal inhibitory concentration (IC50) was found to be 35.8 nM.
For `C=CC(=O)Nc1cccc(Oc2cccc3nc(Nc4ccc(Oc5ccccc5)cc4)nn23)c1` [Example 13, N-(3-(2-(4-phenoxyphenylamino)-[1,2,4]triazolo[1,5-a]pyridin-5-yloxy)phenyl)acrylamide], the IC50 was 9.8 nM.
To `C=CC(=O)Nc1cccc(Oc2cccc3nc(Nc4ccc(C(=O)N5CCOCC5)cc4)nn23)c1` [Example 17, N-(3-(2-(4-(morpholine-4-carbonyl)phenylamino)-[1,2,4]triazolo[1,5-a]pyridin-5-yloxy)phenyl)acrylamide] belongs 0.7 nM; to `C=CC(=O)Nc1cccc(Oc2cccc3nc(Nc4cccc5ccccc45)nn23)c1` [Example 23, N-(3-(2-(naphthalen-1-ylamino)-[1,2,4]triazolo[1,5-a]pyridin-5-yloxy)phenyl)acrylamide], > 400 nM.
With `C=CC(=O)Nc1cccc(Oc2cccc3nc(Nc4cnn(CCN5CCOCC5)c4)nn23)c1` [Example 19, N-(3-(2-(1-(2-morpholinoethyl)-1H-pyrazol-4-ylamino)-[1,2,4]triazolo[1,5-a]pyridin-5-yloxy)phenyl)acrylamide], the half-maximal inhibitory concentration (IC50) came out at 5.1 nM.
To `C=CC(=O)Nc1cccc(Oc2cccc3nc(Nc4ccc(OCCN(CC)CC)cc4)nn23)c1` [Example 15, N-(3-(2-(4-(2-(diethylamino)ethoxy)phenylamino)-[1,2,4]triazolo[1,5-a]pyridin-5-yloxy)phenyl)acrylamide] belongs 6.2 nM.
To `C=CC(=O)Nc1cccc(Oc2cccc3nc(Nc4cccc(-n5nnnc5C)c4)nn23)c1` [Example 7, N-(3-(2-(3-(5-methyl-1H-tetrazol-1-yl)phenylamino)-[1,2,4]triazolo[1,5-a]pyridin-5-yloxy)phenyl)acrylamide] belongs 1.2 nM; to `C=CC(=O)Nc1cccc(Oc2cccc3nc(Nc4cnn(C)c4)nn23)c1` [Example 2, N-(3-(2-(1-methyl-1H-pyrazol-4-ylamino)-[1,2,4]triazolo[1,5-a]pyridin-5-yloxy)phenyl)acrylamide], 1.1 nM; to `C=CC(=O)Nc1cccc(Oc2cccc3nc(Nc4cnc5ccccc5c4)nn23)c1` [Example 24, N-(3-(2-(quinolin-3-ylamino)-[1,2,4]triazolo[1,5-a]pyridin-5-yloxy)phenyl)acrylamide], 15.5 nM.
To `C=CC(=O)Nc1cccc(Oc2cccc3nc(Nc4ccc(N5CCOCC5)nc4)nn23)c1` [Example 21, N-(3-(2-(6-morpholinopyridin-3-ylamino)-[1,2,4]triazolo[1,5-a]pyridin-5-yloxy)phenyl)acrylamide] belongs 0.7 nM.
Consider `C=CC(=O)Nc1cccc(Oc2cccc3nc(Nc4nc5ccc(Cl)cc5s4)nn23)c1` [Example 22, N-(3-(2-(6-chlorobenzo[d]thiazol-2-ylamino)-[1,2,4]triazolo[1,5-a]pyridin-5-yloxy)phenyl)acrylamide], for which the concentration for half-maximal inhibition (IC50) is > 400 nM.
Next, `C=CC(=O)Nc1cccc(Oc2cccc3nc(Nc4ccc5nc(Cl)sc5c4)nn23)c1` [Example 11, N-(3-(2-(2-chlorobenzo[d]thiazol-6-ylamino)-[1,2,4]triazolo[1,5-a]pyridin-5-yloxy)phenyl)acrylamide]: 10.3 nM.

For the origin of these results see patent publication US20220389010A1, “Novel Triazolopyridine Derivatives and Pharmaceutical Composition Comprising Same” (Daewoong Pharmaceutical Co., Ltd., priority 2019, published 2022).
